Reference: the NIST ThermoML archive (doi:10.1016/j.fluid.2010.10.028)

Assay: xn = mol fraction of the nth substance listed
Details: Liquid, Vibrating tube method

CC(C)=O [acetone] + CCCCCCC
Details	mass density [kg/m3]
387.33 K, 39820 kPa, x1 = 0.7024	691.19
387.33 K, 44790 kPa, x1 = 0.7024	696.6
387.33 K, 44850 kPa, x1 = 0.801	707.68
387.33 K, 44910 kPa, x1 = 0.4	722
387.33 K, 44910 kPa, x1 = 0.8992	722
387.33 K, 49890 kPa, x1 = 0.7024	701.8
387.33 K, 54870 kPa, x1 = 0.4	732.14
387.33 K, 54870 kPa, x1 = 0.8992	732.14
387.33 K, 59840 kPa, x1 = 0.492	692.57
387.33 K, 59880 kPa, x1 = 0.7024	711.17
387.33 K, 69820 kPa, x1 = 0.801	731
387.33 K, 69830 kPa, x1 = 0.4	745.58
387.33 K, 69830 kPa, x1 = 0.8992	745.58
387.33 K, 79900 kPa, x1 = 0.801	739.02
387.33 K, 84880 kPa, x1 = 0.801	742.74
387.33 K, 89860 kPa, x1 = 0.801	746.32
387.33 K, 99770 kPa, x1 = 0.7024	741.29
387.33 K, 99830 kPa, x1 = 0.801	753.17
387.33 K, 114840 kPa, x1 = 0.801	762.65
387.33 K, 124840 kPa, x1 = 0.801	768.53
387.33 K, 129850 kPa, x1 = 0.801	771.37
387.34 K, 1350 kPa, x1 = 0.492	613.12
387.34 K, 14820 kPa, x1 = 0.7024	656.98
387.34 K, 19850 kPa, x1 = 0.492	648.12
387.34 K, 24830 kPa, x1 = 0.7024	672.45
387.34 K, 24840 kPa, x1 = 0.492	655.23
387.34 K, 29850 kPa, x1 = 0.492	661.75
387.34 K, 34810 kPa, x1 = 0.7024	685.41
387.34 K, 34840 kPa, x1 = 0.492	667.74
387.34 K, 39870 kPa, x1 = 0.492	673.37
387.34 K, 44860 kPa, x1 = 0.492	678.6
387.34 K, 49850 kPa, x1 = 0.492	683.53
387.34 K, 54850 kPa, x1 = 0.492	688.17
387.34 K, 54880 kPa, x1 = 0.7024	706.61
387.34 K, 64820 kPa, x1 = 0.492	696.75
387.34 K, 64880 kPa, x1 = 0.7024	715.51
387.34 K, 69860 kPa, x1 = 0.7024	719.63
387.34 K, 69930 kPa, x1 = 0.492	700.84
387.34 K, 74840 kPa, x1 = 0.7024	723.6
387.34 K, 74900 kPa, x1 = 0.492	704.65
387.34 K, 79840 kPa, x1 = 0.7024	727.41
387.34 K, 79890 kPa, x1 = 0.492	708.31
387.34 K, 84810 kPa, x1 = 0.7024	731.07
387.34 K, 84890 kPa, x1 = 0.492	711.86
387.34 K, 89810 kPa, x1 = 0.7024	734.6
387.34 K, 89860 kPa, x1 = 0.492	715.24
387.34 K, 94770 kPa, x1 = 0.7024	737.98
387.34 K, 94840 kPa, x1 = 0.492	718.51
387.34 K, 99820 kPa, x1 = 0.492	721.68
387.34 K, 104740 kPa, x1 = 0.7024	744.46
387.34 K, 104800 kPa, x1 = 0.492	724.73
387.34 K, 109720 kPa, x1 = 0.7024	747.55
387.34 K, 109770 kPa, x1 = 0.492	727.68
387.34 K, 114800 kPa, x1 = 0.7024	750.59
387.34 K, 114840 kPa, x1 = 0.492	730.61
387.34 K, 119810 kPa, x1 = 0.7024	753.51
387.34 K, 119850 kPa, x1 = 0.492	733.41
387.34 K, 124820 kPa, x1 = 0.7024	756.37
387.34 K, 124850 kPa, x1 = 0.492	736.14
387.34 K, 129810 kPa, x1 = 0.7024	759.13
387.34 K, 129840 kPa, x1 = 0.492	738.77
397.26 K, 1500 kPa, x1 = 0.801	626.11
397.26 K, 1680 kPa, x1 = 0.4	640.61
397.26 K, 1680 kPa, x1 = 0.8992	640.61
397.26 K, 5010 kPa, x1 = 0.4	649.41
397.26 K, 5010 kPa, x1 = 0.8992	649.41
397.26 K, 14870 kPa, x1 = 0.611	638.19
397.26 K, 14980 kPa, x1 = 0.4	670.71
397.26 K, 14980 kPa, x1 = 0.8992	670.71
397.26 K, 19970 kPa, x1 = 0.4	679.48
397.26 K, 19970 kPa, x1 = 0.8992	679.48
397.26 K, 29940 kPa, x1 = 0.4	694.66
397.26 K, 29940 kPa, x1 = 0.8992	694.66
397.26 K, 44910 kPa, x1 = 0.4	713.39
397.26 K, 44910 kPa, x1 = 0.8992	713.39
397.26 K, 49900 kPa, x1 = 0.4	718.87
397.26 K, 49900 kPa, x1 = 0.8992	718.87
397.26 K, 54890 kPa, x1 = 0.4	724.02
397.26 K, 54890 kPa, x1 = 0.8992	724.02
397.26 K, 59880 kPa, x1 = 0.4	728.9
397.26 K, 59880 kPa, x1 = 0.8992	728.9
397.26 K, 64940 kPa, x1 = 0.611	699.14
397.26 K, 69840 kPa, x1 = 0.4	738.01
397.26 K, 69840 kPa, x1 = 0.8992	738.01
397.26 K, 74820 kPa, x1 = 0.4	742.26
397.26 K, 74820 kPa, x1 = 0.8992	742.26
397.26 K, 84790 kPa, x1 = 0.4	750.27
397.26 K, 84790 kPa, x1 = 0.8992	750.27
397.26 K, 89770 kPa, x1 = 0.4	754.07
397.26 K, 89770 kPa, x1 = 0.8992	754.07
397.26 K, 104690 kPa, x1 = 0.4	764.67
